# Assay results reported in ChEMBL document CHEMBL1629464, “Aldehyde oxidase: an enzyme of emerging importance in drug discovery” (J Med Chem, 2010).
# Assays:
# [1] = Oral bioavailability in dog; format: ADME, organism-based, Canis lupus familiaris; settings: in vivo
# [2] = biological target: T1, Aldehyde oxidase 1 (Macaca fascicularis, UniProt Q5FB27); assay: Inhibition of monkey aldehyde oxidase
# T1 sequence (Q5FB27 whole entry): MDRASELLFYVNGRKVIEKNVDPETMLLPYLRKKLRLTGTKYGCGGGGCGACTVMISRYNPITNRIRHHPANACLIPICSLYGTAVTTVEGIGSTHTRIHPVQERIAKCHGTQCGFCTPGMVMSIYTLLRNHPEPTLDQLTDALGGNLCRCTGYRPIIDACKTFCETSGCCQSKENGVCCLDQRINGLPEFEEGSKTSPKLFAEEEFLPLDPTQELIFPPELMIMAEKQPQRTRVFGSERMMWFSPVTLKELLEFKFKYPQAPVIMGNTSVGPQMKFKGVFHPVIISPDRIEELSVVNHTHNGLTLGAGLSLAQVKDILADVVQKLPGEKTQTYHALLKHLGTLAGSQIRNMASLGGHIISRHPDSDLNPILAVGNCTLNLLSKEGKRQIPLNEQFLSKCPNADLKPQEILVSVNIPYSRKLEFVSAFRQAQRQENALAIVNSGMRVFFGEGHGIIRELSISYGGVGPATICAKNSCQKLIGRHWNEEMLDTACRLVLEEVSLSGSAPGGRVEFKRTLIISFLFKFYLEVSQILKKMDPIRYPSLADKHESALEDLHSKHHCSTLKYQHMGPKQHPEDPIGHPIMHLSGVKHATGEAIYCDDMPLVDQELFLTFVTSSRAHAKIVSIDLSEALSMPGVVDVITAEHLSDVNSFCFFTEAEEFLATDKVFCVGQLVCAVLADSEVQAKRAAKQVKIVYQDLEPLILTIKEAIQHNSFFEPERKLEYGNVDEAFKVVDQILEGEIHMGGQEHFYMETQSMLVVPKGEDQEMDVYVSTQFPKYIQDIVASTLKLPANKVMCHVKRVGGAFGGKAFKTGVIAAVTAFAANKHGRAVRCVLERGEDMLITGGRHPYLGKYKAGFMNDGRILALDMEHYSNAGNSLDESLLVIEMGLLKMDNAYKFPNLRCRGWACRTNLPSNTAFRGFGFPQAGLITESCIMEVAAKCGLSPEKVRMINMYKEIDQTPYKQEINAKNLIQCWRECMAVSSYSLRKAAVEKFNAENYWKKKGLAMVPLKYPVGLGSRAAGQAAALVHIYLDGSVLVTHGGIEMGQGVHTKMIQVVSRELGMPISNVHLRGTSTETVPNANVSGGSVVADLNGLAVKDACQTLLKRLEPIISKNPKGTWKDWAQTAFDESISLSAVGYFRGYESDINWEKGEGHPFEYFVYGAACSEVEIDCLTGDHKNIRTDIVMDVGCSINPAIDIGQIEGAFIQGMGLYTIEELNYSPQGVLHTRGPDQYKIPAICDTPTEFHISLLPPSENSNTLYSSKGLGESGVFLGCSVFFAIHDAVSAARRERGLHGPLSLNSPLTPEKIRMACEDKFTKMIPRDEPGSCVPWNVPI
# [3] = biological target: T2, Aldehyde oxidase 1 (Rattus norvegicus, UniProt Q9Z0U5); assay: Inhibition of rat aldehyde oxidase
# T2 sequence (Q9Z0U5 whole entry): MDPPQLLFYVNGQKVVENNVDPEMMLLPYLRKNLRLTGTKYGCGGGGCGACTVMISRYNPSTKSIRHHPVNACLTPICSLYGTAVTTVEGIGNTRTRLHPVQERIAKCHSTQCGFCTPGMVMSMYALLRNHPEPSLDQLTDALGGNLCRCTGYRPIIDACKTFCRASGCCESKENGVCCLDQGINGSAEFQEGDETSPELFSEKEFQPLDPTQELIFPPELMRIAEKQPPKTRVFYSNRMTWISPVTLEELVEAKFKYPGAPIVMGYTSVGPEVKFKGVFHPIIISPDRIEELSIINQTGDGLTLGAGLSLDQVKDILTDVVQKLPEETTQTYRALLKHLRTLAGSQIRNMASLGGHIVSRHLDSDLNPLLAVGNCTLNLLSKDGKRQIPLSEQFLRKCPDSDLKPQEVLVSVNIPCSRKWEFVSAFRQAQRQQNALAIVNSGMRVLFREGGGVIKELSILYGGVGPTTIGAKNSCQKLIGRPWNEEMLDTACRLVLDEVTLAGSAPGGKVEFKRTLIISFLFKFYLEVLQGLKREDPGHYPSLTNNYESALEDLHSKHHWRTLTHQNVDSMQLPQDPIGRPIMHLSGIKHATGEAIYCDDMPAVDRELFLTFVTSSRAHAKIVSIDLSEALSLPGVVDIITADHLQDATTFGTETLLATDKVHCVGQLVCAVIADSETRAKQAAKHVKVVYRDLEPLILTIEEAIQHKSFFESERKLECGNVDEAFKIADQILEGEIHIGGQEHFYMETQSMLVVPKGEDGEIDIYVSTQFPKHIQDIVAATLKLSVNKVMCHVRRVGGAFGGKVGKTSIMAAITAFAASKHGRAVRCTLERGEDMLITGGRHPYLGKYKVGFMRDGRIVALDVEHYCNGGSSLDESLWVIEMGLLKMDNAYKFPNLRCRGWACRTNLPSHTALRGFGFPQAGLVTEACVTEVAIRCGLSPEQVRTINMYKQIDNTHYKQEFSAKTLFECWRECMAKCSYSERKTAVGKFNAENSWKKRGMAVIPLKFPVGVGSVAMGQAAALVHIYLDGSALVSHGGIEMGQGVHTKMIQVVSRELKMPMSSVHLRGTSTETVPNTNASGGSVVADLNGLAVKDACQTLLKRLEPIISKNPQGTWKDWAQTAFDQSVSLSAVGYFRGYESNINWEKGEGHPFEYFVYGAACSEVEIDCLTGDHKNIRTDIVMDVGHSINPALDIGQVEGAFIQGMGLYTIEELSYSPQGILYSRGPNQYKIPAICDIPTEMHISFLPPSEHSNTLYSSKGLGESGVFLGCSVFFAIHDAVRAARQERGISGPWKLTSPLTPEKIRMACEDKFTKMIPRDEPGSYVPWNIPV
# [4] = biological target: T3, Aldehyde oxidase 1 (Mus musculus, UniProt O54754); assay: Inhibition of mouse aldehyde oxidase
# T3 sequence (O54754 whole entry): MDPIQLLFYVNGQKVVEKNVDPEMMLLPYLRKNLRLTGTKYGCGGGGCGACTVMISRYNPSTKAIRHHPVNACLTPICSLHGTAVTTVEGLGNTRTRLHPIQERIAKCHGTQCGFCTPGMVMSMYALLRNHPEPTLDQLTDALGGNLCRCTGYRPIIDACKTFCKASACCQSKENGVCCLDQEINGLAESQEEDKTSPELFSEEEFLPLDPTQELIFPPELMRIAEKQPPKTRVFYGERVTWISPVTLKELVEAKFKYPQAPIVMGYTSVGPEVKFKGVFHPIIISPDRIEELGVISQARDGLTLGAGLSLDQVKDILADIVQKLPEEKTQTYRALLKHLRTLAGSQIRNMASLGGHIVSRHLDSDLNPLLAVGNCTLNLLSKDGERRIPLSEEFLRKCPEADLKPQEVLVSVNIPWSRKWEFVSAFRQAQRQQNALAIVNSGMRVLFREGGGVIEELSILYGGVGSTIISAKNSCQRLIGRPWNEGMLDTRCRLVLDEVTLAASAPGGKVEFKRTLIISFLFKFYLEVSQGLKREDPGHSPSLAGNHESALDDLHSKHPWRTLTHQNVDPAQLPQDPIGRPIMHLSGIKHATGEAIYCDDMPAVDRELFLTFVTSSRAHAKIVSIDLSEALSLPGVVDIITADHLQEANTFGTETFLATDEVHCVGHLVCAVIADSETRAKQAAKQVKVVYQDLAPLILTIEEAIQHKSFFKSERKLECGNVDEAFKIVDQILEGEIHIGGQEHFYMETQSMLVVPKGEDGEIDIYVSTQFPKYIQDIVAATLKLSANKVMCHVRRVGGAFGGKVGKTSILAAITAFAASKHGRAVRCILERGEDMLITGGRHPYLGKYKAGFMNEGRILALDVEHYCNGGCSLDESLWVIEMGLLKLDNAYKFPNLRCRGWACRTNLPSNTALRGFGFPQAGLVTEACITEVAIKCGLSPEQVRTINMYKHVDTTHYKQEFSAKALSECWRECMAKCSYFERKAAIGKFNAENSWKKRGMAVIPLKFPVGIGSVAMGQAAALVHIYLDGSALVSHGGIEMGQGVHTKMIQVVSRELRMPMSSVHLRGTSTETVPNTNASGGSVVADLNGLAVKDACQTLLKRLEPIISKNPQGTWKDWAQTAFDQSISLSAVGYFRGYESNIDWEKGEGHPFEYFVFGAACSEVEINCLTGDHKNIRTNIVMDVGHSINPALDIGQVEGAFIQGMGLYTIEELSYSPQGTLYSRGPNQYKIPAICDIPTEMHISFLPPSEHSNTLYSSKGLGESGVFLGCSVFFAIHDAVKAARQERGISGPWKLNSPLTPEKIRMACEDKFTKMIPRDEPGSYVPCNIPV
# [5] = test system: Homo sapiens; assay: In-vivo intrinsic clearance in human; format: ADME, organism-based
smiles,measurement,setting,value
CCNC(=O)OC1CCN(c2n[nH]c(=O)c3cc(OC)c(OC)cc23)CC1,bioavailability,[1],68%
O=C(c1ccc(OCCN2CCCCC2)cc1)c1c(-c2ccc(O)cc2)sc2cc(O)ccc12 [RALOXIFENE],IC50,[2],500 nM
same,IC50,[3],1100 nM
same,IC50,[4],500 nM
CCN(C(C)=O)c1cccc(-c2ccnc3c(C#N)cnn23)c1 [ZALEPLON],CL,[5],90 mL/min/kg
